Earlier results on 4 compounds are cited in patent US20210000972A1, “NANOPARTICLES FOR SUSTAINED OPHTHALMIC DRUG DELIVERY AND METHODS OF USE” (2C TECH CORP., priority 2017, published 2021).

Where two headings read alike, the source gives them in different places.

As for `C[C@@H]1C[C@H]2[C@@H]3CCC4=CC(=O)C=C[C@]4(C)[C@@]3(F)[C@@H](O)C[C@]2(C)[C@@]1(O)C(=O)CO` [dexamethasone], where the note is “sustained release form (embedded in a lactic co-glycolic copolymer)”, the “duration of constant concentration” value was “one”. As for `CC1(C)O[C@@H]2C[C@H]3[C@@H]4CCC5=CC(=O)C=C[C@]5(C)[C@@]4(F)[C@@H](O)C[C@]3(C)[C@]2(C(=O)CO)O1` [triamcinolone acetonide], under “intravitreal suspension, 4 mg”, the half-life (in general, how long it takes for the measured level to halve) was 576 h. The “time the drug lasted” value (intravitreal suspension, the two doses administered (4 mg and 16 mg)) was 4 to 6 months.

As to `O=C(O)P(=O)(O)O` [foscarnet], under “intravitreal”, the half-life is 12 h.

For “Avastin: an antibody used for the treatment of macular edema”, for the setting “intravitreal antibody”, the half-life is 140 h and the time detectable is given as more than 30 days. The “systemic delivery after intravitreal administration” value (untreated contralateral eye) is recorded as “found in the untreated contralateral eye”.
